Experimental data from patent US20090156646A1, “PYRIDYLPHENOL COMPOUND AND USE THEREOF” (TAKEDA PHARMACEUTICAL COMPANY LIMITED, priority 2005, published 2009).
Counter-ions that a name gives are not always drawn.

melting point [°C]	Compound
248 to 254	CNCC(=O)Nc1cccc(-c2cc(-c3ccccc3O)nc(NC(=O)c3cccs3)c2C#N)c1.Cl
213 to 218	Cl.N#Cc1c(-c2cccc(NC(=O)[C@H]3CCCN3)c2)cc(-c2ccccc2O)nc1NC(=O)c1cccs1
249 to 251	Cl.N#Cc1c(-c2cccc(NC(=O)CN3CCCCC3)c2)cc(-c2ccc(F)cc2O)nc1NC(=O)c1ccco1
244 to 246	Cl.N#Cc1c(-c2cccc(N3CCOCC3)c2)cc(-c2ccc(F)cc2O)nc1NC(=O)c1ccco1
240 to 242	Cl.N#Cc1c(-c2cccc(N3CCCCC3)c2)cc(-c2ccc(F)cc2O)nc1NC(=O)c1ccco1
192 to 198	Cl.N#Cc1c(-c2cccc(C(=O)NCCCN)c2)cc(-c2ccccc2O)nc1NC(=O)c1cccs1
202 to 208	Cl.N#Cc1c(-c2ccc(C(=O)NCCN)cc2)cc(-c2ccccc2O)nc1NC(=O)c1cccs1
232 to 236	Cl.N#Cc1c(-c2cccc(C(=O)N3CCNCC3)c2)cc(-c2ccccc2O)nc1NC(=O)c1cccs1
227 to 229	COc1ccccc1C(=O)Nc1nc(-c2ccc(Cl)cc2O)cc(-c2cccc(C(=O)NCCN)c2)c1C#N.Cl
240 to 244	CCOc1ccccc1C(=O)Nc1nc(-c2ccc(Cl)cc2O)cc(-c2cccc(NC(=O)CCN)c2)c1C#N.Cl
214 to 220	NCCC(=O)Nc1cccc(-c2cc(NC(=O)c3cccs3)nc(-c3ccccc3O)c2)c1 (as salt: hydrochloride) [Example 27, N-{4-[3-(β-alanylamino)phenyl]-6-(2-hydroxyphenyl)pyridin-2-yl}thiophene-2-carboxamide dihydrochloride]
210 to 216	CN(C)c1ccc(-c2cc(-c3ccccc3O)nc(NC(=O)c3cccs3)c2C#N)cc1C(=O)NCCN (as salt: hydrochloride) [Example 248, N-[4-[3-{[(2-aminoethyl)amino]carbonyl}-4-(dimethylamino)phenyl]-3-cyano-6-(2-hydroxyphenyl)pyridin-2-yl]thiophene-2-carboxamide dihydrochloride]
200 to 206	N#Cc1c(-c2cccc(NC(=O)[C@H](N)Cc3cnc[nH]3)c2)cc(-c2ccc(Cl)cc2O)nc1NC(=O)c1ccco1 (as salt: hydrochloride) [Example 253, N-{3-[6-(4-chloro-2-hydroxyphenyl)-3-cyano-2-(2-furoylamino)pyridin-4-yl]phenyl}-D-histidinamide dihydrochloride]
138 to 144	CCN(CC)CCN(CC)c1cccc(-c2cc(-c3ccc(F)cc3O)nc(NC(=O)c3ccco3)c2C#N)c1 (as salt: hydrochloride) [Example 304, N-[3-cyano-4-{3-[[2-(diethylamino)ethyl] (ethyl)amino]phenyl}-6-(4-fluoro-2-hydroxyphenyl)pyridin-2-yl]-2-furamide dihydrochloride]

Second part, the compound before the results:

Compound	melting point [°C]
Cl.N#Cc1c(-c2cccc(NC(=O)[C@@H]3CCCN3)c2)cc(-c2ccccc2O)nc1NC(=O)c1cccs1	210 to 218
COc1ccccc1C(=O)Nc1nc(-c2ccc(Cl)cc2O)cc(-c2cccc(NC(=O)CCN)c2)c1C#N.Cl	233 to 238
Cl.NCCC(=O)Nc1cccc(-c2cc(-c3ccccc3O)nc(NC(=O)c3ccccc3)c2C(=O)O)c1	250 to 253
Cl.N#Cc1c(-c2ccc(F)c(N)c2)cc(-c2ccc(F)cc2O)nc1NC(=O)c1ccco1	284 to 285
COc1ccc(O)c(-c2cc(-c3cccc(NC(=O)CCN)c3)c(C#N)c(NC(=O)c3cccs3)n2)c1.Cl	197 to 201
Cl.N#Cc1c(-c2cccc(NC(=O)CCN)c2)cc(-c2ccc(Cl)cc2O)nc1NC(=O)c1ccccc1OC(F)(F)F	218 to 223
Cl.N#Cc1c(-c2cccc(C(=O)NC3CCCNC3)c2)cc(-c2ccccc2O)nc1NC(=O)c1cccs1 (stereo not drawn)	232 to 233
Cl.N#Cc1c(-c2cccc(C(=O)NC3CCCNC3)c2)cc(-c2ccccc2O)nc1NC(=O)c1cc2ccccc2s1 (stereo not drawn)	225 to 229
N#Cc1c(-c2cccc(C(=O)NC3CCCNC3)c2)cc(-c2ccccc2O)nc1NC(=O)c1ccccn1 (stereo not drawn) (as salt: hydrochloride) [Example 10, N-(3-cyano-6-(2-hydroxyphenyl)-4-{3-[(piperidin-3-ylamino)carbonyl]phenyl}pyridin-2-yl)pyridin-2-carboxamide dihydrochloride]	204 to 210
N#Cc1c(-c2cccc(NC(=O)CN)c2)cc(-c2ccccc2O)nc1NC(=O)c1cccs1 (as salt: hydrochloride) [Example 12, N-[3-cyano-4-[3-(glycylamino)phenyl]-6-(2-hydroxyphenyl)pyridin-2-yl]thiophene-2-carboxamide dihydrochloride]	210 to 217
N#Cc1c(-c2ccccc2C(=O)NCCN)cc(-c2ccccc2O)nc1NC(=O)c1cccs1 (as salt: hydrochloride) [Example 24, N-[4-(2-{[(2-aminoethyl)amino]carbonyl}phenyl)-3-cyano-6-(2-hydroxyphenyl)pyridin-2-yl]thiophene-2-carboxamide dihydrochloride]	196 to 201
CN(C(=O)CN)c1cccc(-c2cc(-c3ccccc3O)nc(NC(=O)c3cccs3)c2C#N)c1 (as salt: hydrochloride) [Example 41, N-[3-cyano-4-{3-[glycyl(methyl)amino]phenyl}-6-(2-hydroxyphenyl)pyridin-2-yl]thiophene-2-carboxamide dihydrochloride]	198 to 205
N#Cc1c(-c2cccc(NC(=O)[C@@H](N)Cc3cnc[nH]3)c2)cc(-c2ccc(Cl)cc2O)nc1NC(=O)c1ccco1 (as salt: hydrochloride) [Example 243, N-{3-[6-(4-chloro-2-hydroxyphenyl)-3-cyano-2-(2-furoylamino)pyridin-4-yl]phenyl}-L-histidinamide dihydrochloride]	206 to 214
CN(C)CC(=O)Nc1cccc(-c2cc(-c3ccc(F)cc3O)nc(NC(=O)c3ccco3)c2CN(C)C)c1 (as salt: hydrochloride) [Example 300, N-[3-[(dimethylamino)methyl]-4-{3-[(N,N-dimethylglycyl)amino]phenyl}-6-(4-fluoro-2-hydroxyphenyl)pyridin-2-yl]-2-furamide dihydrochloride]	186 to 194
N#Cc1c(-c2cccc(NC(=O)[C@@H](N)CN)c2)cc(-c2ccc(F)cc2O)nc1NC(=O)c1ccco1 (as salt: hydrochloride) [Example 302, N-[4-{3-[(3-amino-L-alanyl)amino]phenyl}-3-cyano-6-(4-fluoro-2-hydroxyphenyl)pyridin-2-yl]-2-furamide dihydrochloride]	231 to 240
CN(C)C[C@@H](C(=O)Nc1cccc(-c2cc(-c3ccc(F)cc3O)nc(NC(=O)c3ccco3)c2C#N)c1)N(C)C (as salt: hydrochloride) [Example 305, N-[3-cyano-4-(3-{[3-(dimethylamino)-N,N-dimethyl-L-alanyl]amino}phenyl)-6-(4-fluoro-2-hydroxyphenyl)pyridin-2-yl]-2-furamide dihydrochloride]	195 to 200
